Data as given in publication PMC10235067, “Increased renal elimination of endogenous and synthetic pyrimidine nucleosides in concentrative nucleoside transporter 1 deficient mice” (Nature Communications, 2023).
Where “and” joins values, the source holds several entries; their conditions need not be identical. Equal values may be shown once.

Assay: Gemcitabine plasma pharmacokinetics in Slc28a1+/+ and Slc28a1-/- mice
Conditions: for C0: C0, dFdU in plasma; for MRT last: MRTlast
[1] = dFdU in plasma, KO mice, iv gemcitabine 50mg/kg, per mouse
[2] = dFdU in plasma, WT mice, iv gemcitabine 50mg/kg, per mouse
[3] = female, Slc28a1-/- (CNT1 knockout; background strain not stated), mouse, plasma, intravenous, 50 mg/kg, Cp (dFdU), KO mice, single iv gemcitabine 50mg/kg
[4] = female, mouse, plasma, intravenous, 50 mg/kg, Cp (dFdU), WT mice, single iv gemcitabine 50mg/kg

With `O=c1ccn([C@@H]2O[C@H](CO)[C@@H](O)C2(F)F)c(=O)[nH]1` [dFdU, 2′,2′-difluorodeoxyuridine] as the compound, how does the Tmax [1] read?
Its Tmax is 5 min and 10 min and 15 min.

And the Vss_obs [1]?
The Vss_obs was 69.4601 L/kg and 61.663 L/kg and 82.9724 L/kg.

What about the Vss_pred [1] of the same compound?
Its Vss_pred is 69.3609 L/kg and 61.8825 L/kg and 83.3534 L/kg.

What about the Vz_obs [1] of the same compound?
The Vz_obs was 55.6606 L/kg and 50.262 L/kg and 61.5323 L/kg.

What about the Vz_pred [1] of the same compound?
Its Vz_pred is 55.7054 L/kg and 50.0305 L/kg and 61.2807 L/kg.

And the AUCINF_D_obs [2]?
The AUCINF_D_obs was 809.741 kg·ng·min/mL/mg and 249.152 kg·ng·min/mL/mg and 172.396 kg·ng·min/mL/mg and 377.161 kg·ng·min/mL/mg.

What about the AUCINF_D_pred [2] of the same compound?
The AUCINF_D_pred was 816.693 kg·ng·min/mL/mg and 238.149 kg·ng·min/mL/mg and 171.456 kg·ng·min/mL/mg and 377.935 kg·ng·min/mL/mg.

And the AUCINF_obs [2]?
The AUCINF_obs was 40487.1 ng·min/mL and 12457.6 ng·min/mL and 8619.8 ng·min/mL and 18858.1 ng·min/mL.

And the AUCINF_pred [2]?
Its AUCINF_pred is 40834.7 ng·min/mL and 11907.4 ng·min/mL and 8572.82 ng·min/mL and 18896.7 ng·min/mL.

And the AUC_%Back_Ext_obs [2]?
The AUC_%Back_Ext_obs was 5.421% and 15.2704% and 19.786% and 11.9089%.

What about the AUC_%Back_Ext_pred [2] of the same compound?
The AUC_%Back_Ext_pred was 5.375% and 15.976% and 19.8944% and 11.8845%.

What about the AUC_%Extrap_obs [2] of the same compound?
Its AUC_%Extrap_obs is 84.3044% and 33.9106% and 11.4334% and 37.4722%.

And the AUC_%Extrap_pred [2]?
Its AUC_%Extrap_pred is 84.438% and 30.857% and 10.948% and 37.6002%.

What about the AUCall [2] of the same compound?
The AUCall was 4075.38 ng·min/mL and 9255.63 ng·min/mL and 10796.8 ng·min/mL and 8847.25 ng·min/mL and 15444.5 ng·min/mL and 12682.2 ng·min/mL.

What about the AUClast [2] of the same compound?
Its AUClast is 2654.78 ng·min/mL and 6354.7 ng·min/mL and 8233.16 ng·min/mL and 7634.27 ng·min/mL and 11791.5 ng·min/mL and 11904.6 ng·min/mL.

And the AUClast_D [2]?
Its AUClast_D is 53.0957 kg·ng·min/mL/mg and 127.094 kg·ng·min/mL/mg and 164.663 kg·ng·min/mL/mg and 152.685 kg·ng·min/mL/mg and 235.831 kg·ng·min/mL/mg and 238.093 kg·ng·min/mL/mg.

And the AUMCINF_obs [2]?
Its AUMCINF_obs is 3570423 min*min*ng/mL and 327900 min*min*ng/mL and 123838 min*min*ng/mL and 570014 min*min*ng/mL.

And the AUMCINF_pred [2]?
The AUMCINF_pred was 3606313 min*min*ng/mL and 297795 min*min*ng/mL and 121856 min*min*ng/mL and 572297 min*min*ng/mL.

And the AUMC_%Extrap_obs [2]?
The AUMC_%Extrap_obs was 98.6995% and 70.4945% and 33.5736% and 73.1636%.

What about the AUMC_%Extrap_pred [2] of the same compound?
Its AUMC_%Extrap_pred is 98.7124% and 67.5118% and 32.4931% and 73.2706%.

What about the AUMClast [2] of the same compound?
The AUMClast was 21508.2 min*min*ng/mL and 46433.5 min*min*ng/mL and 96748.4 min*min*ng/mL and 82261.4 min*min*ng/mL and 152972 min*min*ng/mL and 128827 min*min*ng/mL.

What about the Cl_pred [2] of the same compound?
The Cl_pred was 73.467 L/h/kg and 251.944 L/h/kg and 349.943 L/h/kg and 158.758 L/h/kg.

And the Clast [2]?
Its Clast is 189.413 ng/mL and 386.792 ng/mL and 170.91 ng/mL and 80.8657 ng/mL and 243.534 ng/mL and 51.8385 ng/mL.

And the Clast_pred [2]?
The Clast_pred was 390.731 ng/mL and 148.651 ng/mL and 77.0106 ng/mL and 244.867 ng/mL.

And the Cmax [2]?
Its Cmax is 214.033 ng/mL and 433.203 ng/mL and 507.425 ng/mL and 460.142 ng/mL and 479.909 ng/mL and 627.306 ng/mL.

What about the Cmax_D [2] of the same compound?
The Cmax_D was 4.281 kg·ng/mL/mg and 8.664 kg·ng/mL/mg and 10.1485 kg·ng/mL/mg and 9.203 kg·ng/mL/mg and 9.598 kg·ng/mL/mg and 12.5461 kg·ng/mL/mg.

And the HL_Lambda_z [2]?
The HL_Lambda_z was 61.1667 min and 17.1328 min and 8.4476 min and 20.1128 min.

What about the Lambda_z [2] of the same compound?
Its Lambda_z is 0.01133 min⁻¹ and 0.04046 min⁻¹ and 0.08205 min⁻¹ and 0.03446 min⁻¹.

What about the MRTINF_obs [2] of the same compound?
Its MRTINF_obs is 88.1868 min and 26.3212 min and 14.3667 min and 30.2266 min.

And the MRTINF_pred [2]?
Its MRTINF_pred is 88.315 min and 25.0092 min and 14.2143 min and 30.2855 min.

What about the MRTlast [2] of the same compound?
The MRTlast was 7.307 min and 11.7511 min and 10.7753 min and 12.973 min and 10.8216 min.

And the Tlast [2]?
The Tlast was 15 min and 30 min.

What about the Tmax [2] of the same compound?
Its Tmax is 10 min and 5 min and 15 min.

And the Vss_obs [2]?
The Vss_obs was 108.907 L/kg and 105.643 L/kg and 83.3357 L/kg and 80.1423 L/kg.

What about the Vss_pred [2] of the same compound?
The Vss_pred was 108.137 L/kg and 105.015 L/kg and 82.9031 L/kg and 80.1342 L/kg.

And the Vz_obs [2]?
The Vz_obs was 108.979 L/kg and 99.2063 L/kg and 70.6936 L/kg and 76.9343 L/kg.

What about the Vz_pred [2] of the same compound?
The Vz_pred was 108.051 L/kg and 103.79 L/kg and 71.0811 L/kg and 76.7768 L/kg.

What about the concentration at 120 min [3] of the same compound?
The concentration at 120 min was 0 ng/mL.

And the concentration at 240 min [3]?
Its concentration at 240 min is 0 ng/mL.

What about the concentration at 5 min (female, mouse, plasma, intravenous, 50 mg/kg, Cp (dFdU), KO mice, single iv gemcitabine 50mg/kg, 5 min) of the same compound?
The concentration at 5 min was 400 ng/mL.

What about the concentration at 60 min (female, mouse, plasma, intravenous, 50 mg/kg, Cp (dFdU), KO mice, single iv gemcitabine 50mg/kg) of the same compound?
The concentration at 60 min was 0 ng/mL.

What about the concentration at 60 min [4] of the same compound?
The concentration at 60 min was 0 ng/mL.

What about the concentration at 120 min [4] of the same compound?
Its concentration at 120 min is 0 ng/mL.

What about the concentration at 240 min [4] of the same compound?
Its concentration at 240 min is 0 ng/mL.

What about the AUC(0-inf) (female, mouse, plasma, iv, 50 mg/kg, AUCINF_obs, dFdU in plasma, KO mice, iv gemcitabine 50mg/kg, per mouse) of the same compound?
Its AUC(0-inf) is 121 ng·h/mL.

What about the AUC(0-inf) (female, mouse, plasma, iv, 50 mg/kg, AUCINF_pred, dFdU in plasma, KO mice, iv gemcitabine 50mg/kg, per mouse) of the same compound?
Its AUC(0-inf) is 121 ng·h/mL.

What about the C0 (female, mouse, plasma, iv, 50 mg/kg, KO mice, iv gemcitabine 50mg/kg, per mouse) of the same compound?
Its C0 is 408 ng/mL.

And the C0 (female, mouse, plasma, iv, 50 mg/kg, WT mice, iv gemcitabine 50mg/kg, per mouse)?
The C0 was 445 ng/mL.

What about the Cmax (female, mouse, plasma, iv, 50 mg/kg, Cmax, Slc28a1+/+ mice, plasma, single i.v. dFdC 50 mg/kg) of the same compound?
The Cmax was 453 ± 7.35 ng/mL.

And the Cmax (female, mouse, plasma, iv, 50 mg/kg, Cmax, Slc28a1-/- mice, single i.v. dFdC 50 mg/kg)?
The Cmax was 386 ± 8.42 ng/mL.

What about the k el (female, mouse, plasma, iv, 50 mg/kg, Lambda_z, dFdU in plasma, KO mice, iv gemcitabine 50mg/kg, per mouse) of the same compound?
Its k el is 0.00206 s⁻¹.

And the MRT inf (female, mouse, plasma, iv, 50 mg/kg, MRTINF_obs, dFdU in plasma, KO mice, iv gemcitabine 50mg/kg, per mouse)?
Its MRT inf is 10.1 min.

And the MRT inf (female, mouse, plasma, iv, 50 mg/kg, MRTINF_pred, dFdU in plasma, KO mice, iv gemcitabine 50mg/kg, per mouse)?
The MRT inf was 10.1 min.

What about the MRT last (female, mouse, plasma, iv, 50 mg/kg, dFdU in plasma, KO mice, iv gemcitabine 50mg/kg, per mouse) of the same compound?
Its MRT last is 9.07 min.

And the MRT last (female, mouse, plasma, iv, 50 mg/kg, dFdU in plasma, WT mice, iv gemcitabine 50mg/kg, per mouse)?
Its MRT last is 8.1 min.

And the Tmax (female, mouse, plasma, iv, 50 mg/kg, Tmax, Slc28a1+/+ mice, plasma, single i.v. dFdC 50 mg/kg)?
The Tmax was 240 min.

And the Tmax (female, mouse, plasma, iv, 50 mg/kg, Tmax, Slc28a1-/- mice, single i.v. dFdC 50 mg/kg)?
Its Tmax is 240 min.

What about the “Cp (dFdU)” value (plasma, KO mice, single iv gemcitabine 50mg/kg, 5 min) of the same compound?
The value was 397.109 ng/mL and 353.736 ng/mL and 215.606 ng/mL and 287.027 ng/mL and 238.121 ng/mL.
